In patent US10407388B2, “Thiourea derivatives as activators of RORα and pharmaceutical composition containing same” (SEOUL NATIONAL UNIVERSITY R & DB FOUNDATION, priority 2011, dated 2019):

Columns and labels:
[1] = system: white mice, common carotid artery damaged by balloon catheter; experiment: Inner vascular proliferation after balloon dilatation; type: in vivo; conditions: oral, 5 mg/kg, 14 days after balloon dilatation; H&E staining; FIG. 15
Method: To verify the inhibition of angiostenosis by JC1-40, white mice were administered JC1-40 for […], followed by balloon dilatation and subsequent additional administration of JC1-40 for 14 days. An experimental group was orally administered JC1-40 at a dose of 5 mg/kg (in 0.5% carboxymethyl cellulose, 2 ml/kg) (n=5), and a control was orally administered 0.5% carboxymethlycellulose at a dose of […] (n=5). The balloon dilatation was performed as follows. The cervical portion of each with mouse was incised to expose a common carotid artery, and the internal branch was tied at a site where the common carotid artery branches into the external branch and the internal branch. The external branch was partially incised, and then ballooning was performed three times with a 2F Fogarty balloon catheter to damage blood vessels. Subsequently, the balloon catheter was removed, and the incision site was tied. After balloon dilatation, the white mice were administered the drug for 14 days and then sacrificed to cut the site in artery that included the damaged region. The obtained blood vessels of each of the JC1-40 experimental group and the control were sectioned, the inner vascular layer thereof was subjected to Hematoxylin and Eosin (H&E) staining, and then the effect of JC1-40 on the inhibition of inner vascular proliferation was examined, and the results thereof are illustrated in FIG. 15. […]

[2] = system: alcoholic fatty liver mice model; experiment: Alcoholic fatty liver mice model (Lieber-DeCarli liquid diet); type: in vivo, mice (C57BL/6); conditions: oral, 10 mg/kg body weight once a day for 2 weeks
Method: Eight-week-old black male laboratory mice (C57BL/6) were divided into: 1) control (n=8); 2) JC1-40-administered control (n=8); 3) alcohol group (n=12); and 4) JC1-40-administered alcohol group (n=12), and fed a Lieber-DeCarli liquid diet (Dyets Inc, Bethlehem, Pa., USA). The Lieber-DeCarli liquid diet in the form of powder was purchased, and then water was added thereto every morning to form a liquid-type feed such that 1 ml of the feed contained 1 kcal. The alcohol group was fed a gradually increasing amount of alcohol with an increment of 0.5% during a 2-week adaptation period, and then was fed a feed containing 5% alcohol for 5 weeks. The feed of the control included maltose dextrin instead of alcohol, and for pair-feeding, the feed included maltose dextrin in an amount providing the same calories as the calories that the amount of the feed fed to the mice of the alcohol group contained. During the 5-week ingestion of 5% alcohol, JC1-40 diluted with 0.5% carboxymethyl cellulose was orally administered once a day at a dose of 10 mg/kg body weight for 2 weeks prior to sacrificing the mice. After the 5-week alcohol feeding period was completed, the mice were fasted for 12 hours, and anesthetized to incise the abdomen, and blood and liver were removed from each mouse.

CNC(=S)NCc1ccc(OCc2ccccc2)cc1 [Compound 40, 1-(4-benzyloxy-benzyl)-3-methyl-thiourea]
proliferation of the inner vascular layer by balloon dilatation [1]: inhibited
GOT in plasma ([2]; alcohol group, FIG. 16a): decreases in GPT and GOT to levels of the control
GPT in plasma ([2]; alcohol group, FIG. 16a): decreases in GPT and GOT to levels of the control
level of blood triglycerides ([2]; alcohol group, FIG. 16b): significantly decreased
weight percentage of liver in body ([2]; alcohol group, FIG. 16d): decreased with high significance
accumulation of alcohol-induced lipid vesicles (Hematoxyllin & Eosin) ([2]; liver tissue): significantly reduced
